Reference: patent US7705016B2, “Regulation of food intake by modulation of long-chain fatty acyl-CoA levels in the hypothalamus” (Albert Einstein College of Medicine of Yeshiva University, priority 2003, dated 2010)

Key:
[1] = system: NPY, AgRP and POMC mRNA in ARC; experiment: Neuropeptide (NPY, AgRP, POMC) mRNA in ARC by real-time PCR; format: in vivo, rat; settings: ICV
Excerpt: In order to begin investigating the mechanisms responsible for the anorectic properties of ARC CPT1 inhibition, we next analyzed the effect of CPT1L-Ribo on the gene expression of key ARC peptides. […] Overall, these anorectic effects support the notion that changes in the neuronal levels of LC-CoAs may directly control food intake via their action on discrete hypothalamic centers. Furthermore, increases in LC-CoAs levels in selective hypothalamic neurons are likely to account for the potent effects of oleic acid and of FAS inhibitors on food intake (Loftus et al., 2000; Obici et al., 2002a; Makimura et al., 2001; Shimokawa et al., 2002).
Total RNA was isolated with Trizol (Invitrogen, Carlsbad, Calif.) from individual hypothalamic nuclei (i.e. Arcuate, PVN etc.). Single strand cDNA synthesis and real-time PCR reactions were performed as previously described (Obici et al., 2002b). CPT1L and CPT1M mRNA specific primers contained the following sequences: CPT1L forward (F) 5′-[…]-3′ (SEQ ID NO:5) and reverse (R) primer, 5′-[…]-3′ (SEQ ID NO:6); CPT1M F 5′-[…]-3′ (SEQ ID NO:7) and R 5′-[…]-3′ (SEQ ID NO:8). Hypothalamic neuropeptides expression was performed by real-time PCR using the following primers: NPY-F 5′-[…]-3′ (SEQ ID NO:9), R 5′-[…]-3′ (SEQ ID NO:10), POMC-F 5′-CCAGGCAACGGAGATGAAC-3′ (SEQ ID NO:11), R 5′-TCACTGGCCCTTCTTGTGC-3′ (SEQ ID NO:12), AgRP-F 5′-[…]-3′ (SEQ ID NO:13), R 5′-[…]-3′ (SEQ ID NO:14), and β-actin F 5′-[…]-3′ (SEQ ID NO:15), R 5′-[…]-3′ (SEQ ID NO:16). Transcript levels are expressed as copy number of each gene normalized to copy number for β-actin. Copy number for each transcript was measured against a standard curve, which was obtained by PCR runs of each primer set with serial dilutions of a plasmid containing the target template sequences.

CPT1L mRNA = CPT1L mRNA in stably transfected AtT20 cells (northern blot); format: cell-based; settings: AtT20 cells expressing CPT1L-Ribo; normalized to β-actin
Excerpt: Potent anorexic drugs such as fatty acid synthase (FAS) inhibitors increase the levels of malonyl-CoA, which is derived from the carboxylation of acetyl-CoA by the enzyme acetyl-CoA carboxylase (ACC). High levels of malonyl-CoA in turn inhibit CPT1-dependent oxidation of long-chain fatty acyl-CoAs (LC-CoAs). Similarly, the ICV administration of exogenous fatty acids (LCFA) directly increases the cellular levels of LC-CoA. In either case the resulting increase in intracellular LC-CoA concentration leads to inhibition of feeding behavior. […] LEFT: A probe specific for the liver isoform of CPT1 (CPT1L) detected a ˜4.3 Kb band in the liver (L) and in hypothalamus (H), but not in hind limb muscle (M). RIGHT: Hybridization with a muscle-specific CPT1 probe (CPT1M) detected a ˜3 Kb band in […] muscle (M), but not in hypothalamus. Each lane contained 1.5 μg of mRNA. […] About 200 stable clones were selected for neomycin resistance and analyzed by Northern blot. […] Data are expressed as % of control after normalization with β-actin expression. […] Levels of LC-CoAs were measured by HPLC in liver and skeletal muscle tissues of rats infused IV with vehicle (▪) or CPT1 inhibitors (□). […]
Quantitation of CPT1 and neuropeptides mRNA by Northern and real-time PCR. […]

Substance: CPT1L-Ribo: plasmid (pTarget, CMV promoter) expressing a hammerhead ribozyme that specifically cleaves rat CPT1L mRNA, complexed to PEI for ICV injection (DNA CUGUACCAAAGAGCUGUAGAGUCCGUGAGGACGAAACGCCGCUCACAAUG)
- expression of POMC in the ARC [1]: not significantly altered
- AgRP mRNA in the ARC ([1]; compared with Control-Ribo): marked decrease
- NPY mRNA in the ARC ([1]; compared with Control-Ribo): marked decrease
- less CPT1L mRNA than control cells transfected with vector alone (CPT1L mRNA): ~50%
